The subject of experiment [1] is BxPC3 cells. The experiment in a line: MTT cell survival assay. Format: cell-based. To be noted: Homo sapiens, BXPC-3. As for the experimental part:
(§1) The effect of the test compound on human pancreatic cancer cell viability, expressed as the percentage of cell survival, was determined using the MTT assay [45]–[47]. Cells were grown in 96-well plates at 4–5×10^3 cells per well and exposed to different concentrations of the test compound (0, 1, 5, 12.5, 25, 50 or 100 µM). After incubation for different times, 10 µL of the MTT solution (5 mg/mL; Sigma; St. Louis, MO) were added into each well. The plates were incubated for 2–4 hr at 37°C. The supernatant was then removed and the formazan crystals were dissolved with 100 µL of DMSO. The absorbance at 570 nm was recorded using an OPTImax microplate reader (Molecular Devices; Sunnyvale, CA). The cell survival percentages were calculated by dividing the mean optical density (OD) of compound-containing wells by that of DMSO-containing control wells. Three separate experiments were accomplished to determine the IC50 values.
For orientation: Tetrazolium dyes change colour on reduction, which living cells bring about.

Experiment [2] has as its system HPAC cells. The experiment in a line: MTT cell survival assay. Format: cell-based. The note with it: Homo sapiens, 72 h. Here is the method:
as §1

The test system of experiment [3] is Mia Paca-2 cells. The experiment in a line: MTT cell survival assay. Format: cell-based. To be noted: Homo sapiens. As for the experimental part:
as §1

Experiment [4] deals with Panc-1 cells. The experiment in a line: MTT cell survival assay. To be noted: Homo sapiens. Format: cell-based. Here is the method: as §1
The subject of experiment [5] is BxPC3 cells. The experiment in a line: BrdUrd incorporation cell proliferation assay. Format: cell-based. The note with it: Homo sapiens, BXPC-3; BxPC3, 50 µM, 24 h. Here is the method: (§2) The effect of KCN1 on cell proliferation was determined using the BrdUrd incorporation assay (Oncogene, La Jolla, CA) according to the manufacturer’s instructions, [47]. In brief, cells were seeded in 96-well plates (8 × 10^3 to 1.2 × 10^4 cells per well) and incubated with various concentrations of KCN1 (0, 5, 12.5 and 50 µM) for 24 h. BrdUrd was added to the medium 10 h before termination of the experiment. The BrdUrd incorporated into cells was determined by anti-BrdUrd antibody, and absorbance was measured at dual wavelengths of 450/540 nm using an OPTImax microplate reader (Molecular Devices; Sunnyvale, CA).

For experiment [6], the system named is HPAC cells. The experiment in a line: BrdUrd incorporation cell proliferation assay. The note with it: Homo sapiens, 24 h. Format: cell-based. As for the experimental part:
as §2

Experiment [7] has as its system Mia Paca-2 cells. The experiment in a line: BrdUrd incorporation cell proliferation assay. Format: cell-based. To be noted: Homo sapiens; Mia Paca-2, 50 µM, 24 h. Here is the method:
as §2

Experiment [8] has as its system Panc-1 cells. The experiment in a line: BrdUrd incorporation cell proliferation assay. Format: cell-based. To be noted: Homo sapiens; Panc-1, 50 µM, 24 h. As for the experimental part:
as §2

The subject of experiment [9] is HPAC, Panc-1, Mia Paca-2 and BxPC3 pancreatic cancer cells. The experiment in a line: Western blot of cell cycle-related proteins. Format: cell-based, human. To be noted: all four cell lines, 12 h and 24 h. As for the experimental part: In the in vitro studies, cells were exposed to various concentrations of KCN1 for 12 or 24 h. For immunoblotting, cell lysates were fractionated with identical amounts of protein by SDS-PAGE and transferred to Bio-Rad trans-Blot nitrocellulose membranes (Bio-Rad Laboratories, Hercules, CA). The nitrocellulose membrane was then incubated in blocking buffer (Tris-buffered saline containing 0.1% Tween 20 and 5% non-fat milk) for 1 hr at room temperature. Then the membrane was incubated with the appropriate primary antibody overnight at 4°C or 2 h at room temperature with gentle shaking. The membrane was washed three times with rinsing buffer (Tris-buffered saline containing 0.1% Tween 20) for 15 min and then incubated with goat anti-mouse/rabbit IgG-horseradish peroxidase-conjugated antibody (Bio-Rad) for 1 h at room temperature. After repeating the washes in triplicate, the protein of interest was detected by enhanced chemilluminescence reagents from PerkinElmer LAS, Inc (Boston, MA).
In general terms: Immunoblotting shows a protein as a band on a membrane.

For another experiment, the system named is glioma cells. Set-up: method as in PMID 22923450. The note with it: glioma cells ref 31; cited from earlier work.

The values that follow come from paper PMC3441526, “KCN1, a Novel Synthetic Sulfonamide Anticancer Agent: In Vitro and In Vivo Anti-Pancreatic Cancer Activities and Preclinical Pharmacology” (PLoS ONE, 2012).

In general, inhibition refers to the drop in the measured response relative to a control, in per cent. The term IC50 denotes the concentration that inhibits the measured activity by half. Turning to `COc1ccc(S(=O)(=O)N(Cc2ccc3c(c2)C=CC(C)(C)O3)c2ccccc2)cc1OC` [KCN1, 3,4-dimethoxy-N-[(2,2-dimethyl-2H-chromen-6-yl)methyl]-N-phenylbenzenesulfonamide], the inhibition at 100 µM with BxPC3 cells [1] (BxPC3, 100 µM, 72 h, read-out: inhibition of cell growth) was found to be 81%; in the experiment on HPAC cells [2] (100 µM, read-out: inhibition of cell growth), 83%; with Mia Paca-2 cells [3] (Mia Paca-2, 100 µM, 72 h, read-out: inhibition of cell growth), 61%; with Panc-1 cells [4] (Panc-1, 100 µM, 72 h, read-out: inhibition of cell growth), 53%. In addition, the IC50 in the experiment on BxPC3 cells [1] (BxPC3, 72 h, MTT, read-out: Cytotoxicity: IC50) turned out to be 14.62 ± 0.1 µM; with HPAC cells [2] (MTT, read-out: Cytotoxicity: IC50), 17.91 ± 0.12 µM; in the experiment with Mia Paca-2 cells [3] (Mia Paca-2, 72 h, MTT, read-out: Cytotoxicity: IC50), 69.9 ± 2.12 µM; in the experiment with Panc-1 cells [4] (Panc-1, 72 h, MTT, read-out: Cytotoxicity: IC50), 100 ± 2.35 µM. The inhibition at 50 µM was around 88% in the experiment on BxPC3 cells [5], around 80% with HPAC cells [6], around 60% in the experiment with Mia Paca-2 cells [7] and around 56% in the experiment with Panc-1 cells [8]. Also, in experiment [9], the “expression of E2F1, Cdk2, Cdk4, Cdk6, Cdc25c, Cyclin D1 and Cyclin E” value is listed as “decreased expression”. Further, the “expression of p21 and p27” value in experiment [9] is given as “increased the expression”. Further, in the experiment with glioma cells, the cytostatic effect result is on record as “little cytostatic effect”.
